Test results as given in ChEMBL document CHEMBL3045567, “Heterocycles 23: Synthesis, characterization and anticancer activity of new hydrazinoselenazole derivatives” (Med Chem Res, 2013).

Columns and labels:
DU-145 = test: Cytotoxicity against human DU145 cells after 72 hrs by XTT assay; format: functional, cell-based; settings: DU-145, 72 h
HepG2 = test: Cytotoxicity against human HepG2 cells after 72 hrs by XTT assay; format: functional, cell-based; settings: HepG2, 72 h

SMILES | IC50 (DU-145) [µM] | IC50 (HepG2) [µM]
CC(=O)N(C(=O)c1ccccc1)N(C(C)=O)c1nc(-c2ccccc2)c[se]1 | > 58.6 | > 58.6
CC(=O)N(C(=O)c1ccc(Cl)cc1)N(C(C)=O)c1nc(C)c[se]1 | > 62.7 | > 62.7
CC(=O)N(C(=O)c1ccc(Cl)cc1)N(C(C)=O)c1nc(-c2ccccc2)c[se]1 | > 54.3 | > 54.3
CC(=O)N(/N=C/c1ccc(Cl)cc1)c1nc(CCl)c[se]1 | 64.7 | > 66.7
CC(=O)N(/N=C/c1ccc(Cl)cc1)c1nc(-c2ccccc2)c[se]1 | > 62.1 | > 62.1
CCOC(=O)c1[se]c(N(/N=C/c2ccc(Cl)cc2)C(C)=O)nc1C | > 60.6 | 55.1
COc1ccc(/C=N/N(C(C)=O)c2nc(C)c[se]2)cc1 | > 74.4 | > 74.4
COc1ccc(/C=N/N(C(C)=O)c2nc(-c3ccccc3)c[se]2)cc1 | > 62.8 | > 62.8
CC(=O)N(/N=C/c1csc(-c2ccccc2)n1)c1nc(CCl)c[se]1 | 19.6 | 19.3
CC(=O)c1[se]c(N(/N=C/c2csc(-c3ccccc3)n2)C(C)=O)nc1C | 31.3 | 29.4
NC(=[Se])NNC(=O)c1ccc(Cl)cc1 | 7.59 | 10.7
Cc1c[se]c(NNC(=O)c2ccccc2)n1 | > 89.2 | > 89.2
O=C(NNc1nc(-c2ccccc2)c[se]1)c1ccccc1 | > 73 | > 73
Cc1c[se]c(NNC(=O)c2ccc(Cl)cc2)n1 | > 79.5 | > 79.5
O=C(NNc1nc(-c2ccccc2)c[se]1)c1ccc(Cl)cc1 | 65.1 | 62.9
CC(=O)N(C(=O)c1ccccc1)N(C(C)=O)c1nc(C)c[se]1 | > 68.6 | > 68.6

SMILES | IC50 (DU-145) [µM] | IC50 (HepG2) [µM]
NC(=[Se])N/N=C/c1ccc(Cl)cc1 | 8.63 | 13
COc1ccc(/C=N/NC(N)=[Se])cc1 | 30.3 | 11.3
NC(=[Se])N/N=C/c1csc(-c2ccccc2)n1 | 6.14 | 9.18
Cc1c[se]c(N/N=C/c2ccc(Cl)cc2)n1 | 49.4 | 56.5
ClCc1c[se]c(N/N=C/c2ccc(Cl)cc2)n1 | > 75.1 | > 75.1
Clc1ccc(/C=N/Nc2nc(-c3ccccc3)c[se]2)cc1 | 54.2 | 42.5
CCOC(=O)c1[se]c(N/N=C/c2ccc(Cl)cc2)nc1C | 47.7 | 52.8
COc1ccc(/C=N/Nc2nc(C)c[se]2)cc1 | > 85 | 83.2
COc1ccc(/C=N/Nc2nc(-c3ccccc3)c[se]2)cc1 | 50.9 | 50.5
ClCc1c[se]c(N/N=C/c2csc(-c3ccccc3)n2)n1 | 16.4 | 18.8
CC(=O)c1[se]c(N/N=C/c2csc(-c3ccccc3)n2)nc1C | 49.9 | 61.3
CC(=O)N(/N=C/c1ccc(Cl)cc1)c1nc(C)c[se]1 | 60.6 | 59.2
NC(=[Se])NNC(=O)c1ccccc1 [BENZOYL-SELENOSEMICARBAZIDE] | 35.1 | 34.8
NC(=[Se])N/N=C/c1ccccc1 [BENZYLIDEN-SELENOSEMICARBAZIDE] | 40.8 | 39.1
COc1cccc2c1C(=O)c1c(O)c3c(c(O)c1C2=O)C[C@@](O)(C(=O)CO)C[C@@H]3O[C@H]1C[C@H](N)[C@H](O)[C@H](C)O1 [DOXORUBICIN] | 3.27 | 4.89
